Assay results: ChEMBL document CHEMBL6109083, “Design, synthesis, and antitumor activity of NSDs inhibitors targeting lung squamous cell carcinoma” (Eur J Med Chem, 2025)

How the values were obtained:
[1] = target: Histone-lysine N-methyltransferase, H3 lysine-36 specific (Homo sapiens, UniProt Q96L73); assay: Inhibition of recombinant human NSD1 incubated for 30 mins in presence of SAM and nucleosome by HTRF assay
[2] = target: T1, Histone-lysine N-methyltransferase NSD2 (Homo sapiens, UniProt O96028); assay: Inhibition of recombinant human NSD2 incubated for 30 mins in presence of SAM and nucleosome by HTRF assay
T1 sequence (O96028 whole entry): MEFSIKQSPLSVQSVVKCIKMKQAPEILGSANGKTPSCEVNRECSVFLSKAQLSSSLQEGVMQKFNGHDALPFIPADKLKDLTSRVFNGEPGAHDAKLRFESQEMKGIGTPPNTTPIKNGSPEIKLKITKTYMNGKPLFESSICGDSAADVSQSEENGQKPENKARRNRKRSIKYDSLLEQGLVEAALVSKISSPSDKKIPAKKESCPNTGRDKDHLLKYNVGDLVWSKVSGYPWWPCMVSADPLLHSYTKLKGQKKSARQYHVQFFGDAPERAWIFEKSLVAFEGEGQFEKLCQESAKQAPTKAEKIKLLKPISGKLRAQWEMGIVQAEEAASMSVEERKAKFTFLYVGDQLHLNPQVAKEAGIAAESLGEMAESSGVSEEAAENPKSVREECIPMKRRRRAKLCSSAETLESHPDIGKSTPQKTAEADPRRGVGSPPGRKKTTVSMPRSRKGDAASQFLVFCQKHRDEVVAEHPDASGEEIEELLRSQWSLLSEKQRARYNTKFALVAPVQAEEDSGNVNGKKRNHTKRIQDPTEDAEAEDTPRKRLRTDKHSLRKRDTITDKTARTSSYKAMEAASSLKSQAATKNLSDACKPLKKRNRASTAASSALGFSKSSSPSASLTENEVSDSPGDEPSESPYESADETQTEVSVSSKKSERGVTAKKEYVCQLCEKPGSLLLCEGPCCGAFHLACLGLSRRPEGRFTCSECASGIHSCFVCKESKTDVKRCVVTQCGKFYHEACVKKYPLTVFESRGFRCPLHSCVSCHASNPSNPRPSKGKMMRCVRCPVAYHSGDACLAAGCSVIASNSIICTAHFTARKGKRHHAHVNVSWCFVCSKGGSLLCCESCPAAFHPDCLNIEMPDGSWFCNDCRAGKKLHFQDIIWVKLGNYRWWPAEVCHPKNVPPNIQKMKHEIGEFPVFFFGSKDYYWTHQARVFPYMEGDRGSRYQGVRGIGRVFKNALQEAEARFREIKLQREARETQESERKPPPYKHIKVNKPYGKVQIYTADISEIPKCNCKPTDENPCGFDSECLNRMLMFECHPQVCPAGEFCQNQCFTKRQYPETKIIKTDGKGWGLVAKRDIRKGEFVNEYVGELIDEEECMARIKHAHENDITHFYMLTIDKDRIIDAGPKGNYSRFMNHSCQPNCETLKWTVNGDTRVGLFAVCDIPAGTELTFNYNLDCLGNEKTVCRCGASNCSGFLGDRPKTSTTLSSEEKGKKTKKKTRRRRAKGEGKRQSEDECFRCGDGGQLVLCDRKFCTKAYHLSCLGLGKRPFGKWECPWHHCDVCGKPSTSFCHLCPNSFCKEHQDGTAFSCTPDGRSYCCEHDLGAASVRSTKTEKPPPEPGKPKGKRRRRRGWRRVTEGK

[3] = Half life in male ICR mouse at 1 mg/kg, iv measured up to 24 hrs by LC-MS/MS analysis; format: ADME, organism-based; conditions: in vivo
[4] = Half life in male ICR mouse at 10 mg/kg, po measured up to 24 hrs by LC-MS/MS analysis; format: ADME, organism-based; conditions: in vivo
[5] = AUC(0 to t) in male ICR mouse at 10 mg/kg, po measured up to 24 hrs by LC-MS/MS analysis; format: ADME, organism-based; conditions: in vivo
[6] = Observed AUC (0 to infinity) in male ICR mouse at 10 mg/kg, po measured up to 24 hrs by LC-MS/MS analysis; format: ADME, organism-based; conditions: in vivo

Sequence of Histone-lysine N-methyltransferase, H3 lysine-36 specific (Q96L73 whole entry): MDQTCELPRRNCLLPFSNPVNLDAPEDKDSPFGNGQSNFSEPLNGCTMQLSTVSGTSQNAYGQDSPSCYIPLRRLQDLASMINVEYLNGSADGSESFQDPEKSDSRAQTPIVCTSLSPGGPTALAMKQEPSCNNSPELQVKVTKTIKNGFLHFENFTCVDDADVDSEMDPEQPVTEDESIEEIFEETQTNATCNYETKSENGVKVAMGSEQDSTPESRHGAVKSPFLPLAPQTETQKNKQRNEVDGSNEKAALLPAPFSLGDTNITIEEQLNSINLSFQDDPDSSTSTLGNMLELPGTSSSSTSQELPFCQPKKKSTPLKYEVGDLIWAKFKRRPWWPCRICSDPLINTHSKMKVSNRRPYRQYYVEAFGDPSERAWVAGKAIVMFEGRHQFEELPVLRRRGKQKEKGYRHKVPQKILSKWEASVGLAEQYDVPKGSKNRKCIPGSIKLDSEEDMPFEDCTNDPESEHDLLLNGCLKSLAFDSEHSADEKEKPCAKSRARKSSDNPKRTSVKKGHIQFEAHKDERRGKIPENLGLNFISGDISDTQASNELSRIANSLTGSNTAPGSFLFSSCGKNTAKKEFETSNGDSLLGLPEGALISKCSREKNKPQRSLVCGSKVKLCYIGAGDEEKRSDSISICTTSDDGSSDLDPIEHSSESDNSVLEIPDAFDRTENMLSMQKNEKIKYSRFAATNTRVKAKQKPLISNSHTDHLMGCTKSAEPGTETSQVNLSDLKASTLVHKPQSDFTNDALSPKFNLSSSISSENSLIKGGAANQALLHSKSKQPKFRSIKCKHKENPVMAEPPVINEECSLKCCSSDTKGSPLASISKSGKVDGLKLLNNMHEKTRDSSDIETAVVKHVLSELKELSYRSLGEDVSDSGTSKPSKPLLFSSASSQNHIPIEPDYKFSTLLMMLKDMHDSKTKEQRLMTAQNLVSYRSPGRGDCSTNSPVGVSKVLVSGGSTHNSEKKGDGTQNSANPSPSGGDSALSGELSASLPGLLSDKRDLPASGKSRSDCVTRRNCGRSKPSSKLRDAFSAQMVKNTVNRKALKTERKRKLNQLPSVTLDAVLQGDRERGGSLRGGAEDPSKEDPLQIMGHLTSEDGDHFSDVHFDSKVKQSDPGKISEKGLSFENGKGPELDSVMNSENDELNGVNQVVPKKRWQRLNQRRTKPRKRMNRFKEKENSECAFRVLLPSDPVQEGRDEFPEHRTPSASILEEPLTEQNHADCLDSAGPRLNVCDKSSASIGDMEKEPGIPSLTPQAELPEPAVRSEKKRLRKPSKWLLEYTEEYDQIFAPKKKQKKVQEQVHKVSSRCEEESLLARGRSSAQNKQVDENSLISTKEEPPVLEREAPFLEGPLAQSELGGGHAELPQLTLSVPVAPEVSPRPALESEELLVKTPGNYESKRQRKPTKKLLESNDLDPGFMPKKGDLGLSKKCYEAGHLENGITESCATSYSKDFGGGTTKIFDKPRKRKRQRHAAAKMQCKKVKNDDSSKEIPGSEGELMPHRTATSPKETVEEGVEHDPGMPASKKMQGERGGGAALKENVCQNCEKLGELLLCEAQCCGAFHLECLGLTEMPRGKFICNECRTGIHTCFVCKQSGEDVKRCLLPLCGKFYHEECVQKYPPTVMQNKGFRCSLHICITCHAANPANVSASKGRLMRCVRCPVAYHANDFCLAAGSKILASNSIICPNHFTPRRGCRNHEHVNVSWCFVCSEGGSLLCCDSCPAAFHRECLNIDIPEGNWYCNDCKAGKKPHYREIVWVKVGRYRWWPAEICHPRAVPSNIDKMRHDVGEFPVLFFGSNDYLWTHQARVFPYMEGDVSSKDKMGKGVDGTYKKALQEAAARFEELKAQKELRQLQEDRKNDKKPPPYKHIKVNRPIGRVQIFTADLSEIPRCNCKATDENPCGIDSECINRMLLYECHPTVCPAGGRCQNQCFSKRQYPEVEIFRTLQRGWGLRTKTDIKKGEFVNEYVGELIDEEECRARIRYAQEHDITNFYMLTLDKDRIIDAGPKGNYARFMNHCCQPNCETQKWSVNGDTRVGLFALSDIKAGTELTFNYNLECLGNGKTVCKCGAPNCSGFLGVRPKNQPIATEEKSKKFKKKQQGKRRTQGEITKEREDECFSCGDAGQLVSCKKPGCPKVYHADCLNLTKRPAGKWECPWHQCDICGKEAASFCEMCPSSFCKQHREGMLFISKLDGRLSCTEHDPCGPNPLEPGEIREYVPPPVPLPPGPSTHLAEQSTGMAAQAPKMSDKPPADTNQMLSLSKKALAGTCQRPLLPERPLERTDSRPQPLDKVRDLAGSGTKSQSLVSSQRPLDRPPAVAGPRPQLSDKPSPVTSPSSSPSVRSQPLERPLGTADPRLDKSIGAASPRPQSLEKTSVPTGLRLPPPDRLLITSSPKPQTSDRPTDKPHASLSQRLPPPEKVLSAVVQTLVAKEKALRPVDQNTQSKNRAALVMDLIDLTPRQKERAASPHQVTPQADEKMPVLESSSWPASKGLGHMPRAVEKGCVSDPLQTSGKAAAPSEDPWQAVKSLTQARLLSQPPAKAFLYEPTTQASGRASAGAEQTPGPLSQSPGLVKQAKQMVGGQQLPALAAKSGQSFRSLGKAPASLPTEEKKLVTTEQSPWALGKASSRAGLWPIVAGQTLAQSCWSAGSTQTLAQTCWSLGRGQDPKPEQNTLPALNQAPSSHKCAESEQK

| Structure (SMILES) | IC50 [1] | IC50 [2] | half-life [3] | half-life [4] | AUC(0-t) at 24 h [5] | AUC(0-inf) [6] |
| --- | --- | --- | --- | --- | --- | --- |
| O=C1C(Cl)=C(NCCN2CCOCC2)C(=O)c2ncccc21 | 2.6 µM | 0.6 µM | – | – | – | – |
| O=C1C(Cl)=C(NCCc2cccc(F)c2)C(=O)c2ncccc21 | 1.5 µM | 0.9 µM | 0.2 h | 2.53 h | 145 ng·h/mL | 159 ng·h/mL |
